Results on one compound are retold here after paper PMC4145316, “Cytotoxic and Apoptosis-Inducing Activity of Triterpene Glycosides from Holothuria scabra and Cucumaria frondosa against HepG2 Cells” (Marine Drugs, 2014).

Structures are written as SMILES.

Test [1] deals with Caspase-3, Caspase-8 and Caspase-9 mRNA in HepG2 cells. Description: RT-PCR, Caspase-3, Caspase-8 and Caspase-9 mRNA expression. The format is cell-based, human. The source says:
Caspases play an important role in cell apoptosis. Activation of caspase appears to be directly responsible for many molecular and structural changes in apoptosis. The caspase-dependent process is associated with two pathways of anticancer drug-induced apoptosis, the extrinsic (death receptor) pathway and the intrinsic (mitochondrial) pathway. The extrinsic pathway is initiated by death ligands, such as FasL, leading to cleavage of pro-Caspase-8 to its active form, which subsequently activates downstream effectors such as Caspase-3. The intrinsic pathway is characterized by mitochondria dysfunction, resulting in the reduction of mitochondrial transmembrane potentials, mitochondrial translocation of the pro-apoptotic Bax protein, cytochrome c release and activation of downstream effector caspases such as Caspase-9 [39, 40]. Caspase-3 is one of the downstream effectors of the caspase family, and is considered to involve both the mitochondrial apoptotic pathway and the death receptor pathway. […]
Figure 6 Effects of 1 on the mRNA expression level of Caspase-3, Caspase-8 and Caspase-9 in HepG2 cells. […] The mRNA expression levels of β-actin, Caspase-3, Caspase-8 and Caspase-9 were detected by RT-PCR using specific primers. […]
Total RNA was extracted with TRIzol reagent (Invitrogen, Grand Island, NY, USA) according to the manufacturer’s instructions, and reverse transcription was performed as previously. […] Semi-quantitative RT-PCR was performed using β-actin as an internal control to normalize gene expression for the PCR templates. The PCR products were analyzed by electrophoresis on a 1.5% agarose gel containing goldview (5 μL/100 mL), and the amplified bands were visualized and photographed using JS-680B Gel Documentation and Analysis System (Shanghai Peiqing Science and Technology Co., Ltd., Shanghai, China). The size of the amplified fragments was determined by comparison with a standard DNA marker.

The next test deals with HepG2 cells. Description: HepG2 cell viability, MTT, 6 h and 12 h. Type of test: cell-based, human. On the procedure:
To determine the effects of 1 on the viability of HepG2 cell, the cells were cultured with 1 at different concentrations for 6 h and 12 h, and cell viability was measured using MTT assay.
Figure 2 Effect of 1 on cell viability of HepG2 cells. HepG2 cells were treated with the various concentrations of 1 for 6 and 12 h, and cell viability was measured using the MTT assay. The values are presented as means ± SD (n = 5).
(§1) The effect of compounds 1–13 on the viability of HepG2, HeLa, K562 and HL-7702 cells was determined by MIT assay as described previously. Briefly, the tumor and normal cells were seeded at 1 × 10^4 cells/well in a 96-well microtiter plate and incubated at 37 °C in a humidified atmosphere with 5% CO2. After 24 h, compounds 1–13, the positive drug CDDP or RPMI-1640 medium were added into each well, and the plates were incubated at 37 °C for the indicated time. Each concentration was repeated four wells. 50 μL of MTT solution (2 mg/mL) was added to each well 4 h before incubation end, and incubated further for 4 h. The plates were centrifuged (1400× g, 5 min) and the untransformed MTT was removed carefully by pipetting. To each well, 150 μL of DMSO was added and the absorbance was evaluated in an ELISA reader at 570 nm after 15 min. The inhibitory rates and 50% inhibitory concentrations (IC50) values towards cell viability were calculated by NDST software. Each test was performed in triplicate.

Test [2] concerns Bcl-2 and Bax mRNA in HepG2 cells. The test is described as follows: RT-PCR, Bcl-2/Bax mRNA expression ratio. The settings on record: time- and concentration-dependent. Type of test: cell-based, human. The source says: The Bcl-2 family members can alter the permeability of mitochondrial membrane, and release cytochrome c or activate caspase cascade. There are two classes of regulatory proteins in the Bcl-2 family that have opposite effects on apoptosis: The anti-apoptotic members (Bcl-2 and Bcl-XL) protect cells against some forms of apoptosis, whereas the pro-apoptotic members (Bax and Bcl-xS) promote programmed cell death. As decrease of the ratio between anti-apoptotic gene Bcl-2 and pro-apoptotic gene Bax mRNA expression is widely considered as a hallmark of apoptosis, the expression level of Bcl-2 and Bax mRNA in HepG2 cells were first detected.
Figure 5 Effect of 1 on the ratio of expression level between Bcl-2 and Bax mRNA in HepG2 cells. HepG2 cells were incubated with 1 at the various concentrations for the different time. The mRNA expression levels of β-actin, Bcl-2, and Bax were detected by RT-PCR using specific primers. The values are presented as means ± SD (n = 3). […]
Total RNA was extracted with TRIzol reagent (Invitrogen, Grand Island, NY, USA) according to the manufacturer’s instructions, and reverse transcription was performed as previously. […] Semi-quantitative RT-PCR was performed using β-actin as an internal control to normalize gene expression for the PCR templates. […] The size of the amplified fragments was determined by comparison with a standard DNA marker.

The test system of test [3] is human liver (HL-7702) cells. Description: MTT cytotoxicity assay, normal HL-7702 cells. The settings on record: for Ratio (HL-7702/HepG2): ratio of IC50 values against HL-7702 and HepG2 cells, selective cytotoxicity. The format is cell-based. On the procedure:
(§2) Human hepatoma (HepG2), human cervical cancer (HeLa), human leukemia (K562) and human liver (HL-7702) cells were obtained by Shanghai Institute of Biochemistry and Cell Biology, and maintained in the logarithmic phase of growth in RPMI-1640 complete medium supplemented with 2 mM L-glutamine (Sigma Chemical Co., Saint Louis, MO, USA), 100 IU/mL penicillin, 100 μg/mL streptomycin and 10% FCS at 37 °C under humidified air with 5% CO2.
as §1

The next test has as its system Top2a. Further details: method as in PMID 19773249. The following applies: interference in DNA binding, impairment of Top2-mediated DNA cleavage and relegation; cited from earlier work.
For test [4], the system named is human leukemia (K562) cells. Description: MTT cytotoxicity assay, K562 cells. The format is cell-based. The settings on record: means ± SD (n = 3). On the procedure:
as §2, §1
A general note: Tetrazolium dyes change colour on reduction, which living cells bring about.

Test [5] concerns human cervical cancer (HeLa) cells. Description: MTT cytotoxicity assay, HeLa cells. Type of test: cell-based. The settings on record: means ± SD (n = 3). On the procedure:
as §2, §1

Test [6] has as its system human gastric cancer MKN-45 cells. The following applies: read-out: IC50 against MKN-45 cells; cited from earlier work.
[7] abbreviates: no difference among concentrations at 2 h.

For the compound `COC1C(O)C(CO)OC(OC2C(O)C(CO)OC(OC3C(C)OC(OC4C(OC5CCC6(C)C7=CC(O)C89C(=O)OC(C)(CCCC(C)C)C8(O)CCC9(C)C7CCC6C5(C)C)OCC(OS(=O)(=O)O)C4O)C(O)C3O)C2O)C1O.[Na+]` (centres unmarked) [Echinoside A (1), Echinoside A], in test [1] (setting [7]), the “expression level of Caspase-8 mRNA” value is recorded as “significantly up-regulated” and the “expression level of Caspase-9 mRNA” value is “significantly up-regulated”. Besides, the “expression level of Caspase-3 mRNA” value in test [1] (time- and dose-dependent) was “markedly up-regulated”. Further, the “cell viability of HepG2 cells at 2.25 μg/mL” value in the test with HepG2 cells (2.25 μg/mL) is “hardly influenced cell viability”. Further, in the test on HepG2 cells (3 μg/mL), the “cell viability of HepG2 cells at 3 μg/mL” value is listed as “completely inhibited”. The “effective concentration range for inhibiting survival of HepG2 cells” value with HepG2 cells (MTT) was 2.25−3 μg/mL. Besides, in test [2], the “ratio of Bcl-2/Bax mRNA expression” value was “significantly decreased”. In test [3] (MTT assay, normal hepatocytes, means ± SD (n = 3)), the “IC50 (μg/mL) HL-7702” value is 3.12 ± 0.65 µg/mL. For the same compound, in test [3], the “Ratio (HL-7702/HepG2)” value stood at 2.08. The “Ratio (HL-7702/HepG2)” value in test [3] (listed as 1) was “more than 2”. Moreover, the Top2 inhibition result in the test on Top2a is given as “non-intercalative Top2 inhibitor”. The “IC50 (μg/mL) K562” value in test [4] was determined as 1.61 ± 0.11 µg/mL. Besides, the “IC50 (μg/mL) HeLa” value in test [5] was determined as 1.25 ± 0.16 µg/mL. Moreover, the IC50 (as a rule, the concentration that gives 50% inhibition) in test [6] was 1860 nM.
